Where “and” joins values, the source holds several entries; their conditions need not be identical. Equal values may be shown once. Read-outs that look alike come from different tables or passages of the source.
Key:
PfcProRS = target: T1, PfcProRS (Plasmodium falciparum, UniProt Q8I5R7); format: binding; conditions: single replicates
T1 construct: made in house; host or cells: E. coli SoluBL-21

HsProRS = HsProRS (Homo sapiens, UniProt P07814); test: TR-FRET ligand displacement assay with tracer MAT379 (CoraFluor-1-Halo and anti-His6 antibody formats); format: binding; design: made in house; host or cells: E. coli SoluBL-21; conditions: for TR-FRET dose-response, normalized signal (SI Fig 11): individual replicates
Chain of HsProRS (P07814 996-1512): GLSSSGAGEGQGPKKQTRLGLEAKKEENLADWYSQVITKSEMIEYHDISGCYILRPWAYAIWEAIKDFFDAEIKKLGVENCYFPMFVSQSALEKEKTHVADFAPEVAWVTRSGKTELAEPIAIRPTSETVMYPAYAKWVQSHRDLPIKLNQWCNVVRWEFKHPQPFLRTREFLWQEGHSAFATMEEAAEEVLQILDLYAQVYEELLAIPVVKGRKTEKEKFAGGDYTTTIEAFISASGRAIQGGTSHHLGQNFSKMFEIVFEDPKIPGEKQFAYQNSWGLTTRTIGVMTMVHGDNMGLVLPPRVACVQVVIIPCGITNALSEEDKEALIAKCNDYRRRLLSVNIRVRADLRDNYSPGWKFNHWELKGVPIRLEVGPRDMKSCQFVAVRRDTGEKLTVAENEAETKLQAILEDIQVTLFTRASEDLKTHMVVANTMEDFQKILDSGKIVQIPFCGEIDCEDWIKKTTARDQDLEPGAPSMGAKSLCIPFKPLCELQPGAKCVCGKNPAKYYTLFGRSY

T1 sequence (Q8I5R7 249-746): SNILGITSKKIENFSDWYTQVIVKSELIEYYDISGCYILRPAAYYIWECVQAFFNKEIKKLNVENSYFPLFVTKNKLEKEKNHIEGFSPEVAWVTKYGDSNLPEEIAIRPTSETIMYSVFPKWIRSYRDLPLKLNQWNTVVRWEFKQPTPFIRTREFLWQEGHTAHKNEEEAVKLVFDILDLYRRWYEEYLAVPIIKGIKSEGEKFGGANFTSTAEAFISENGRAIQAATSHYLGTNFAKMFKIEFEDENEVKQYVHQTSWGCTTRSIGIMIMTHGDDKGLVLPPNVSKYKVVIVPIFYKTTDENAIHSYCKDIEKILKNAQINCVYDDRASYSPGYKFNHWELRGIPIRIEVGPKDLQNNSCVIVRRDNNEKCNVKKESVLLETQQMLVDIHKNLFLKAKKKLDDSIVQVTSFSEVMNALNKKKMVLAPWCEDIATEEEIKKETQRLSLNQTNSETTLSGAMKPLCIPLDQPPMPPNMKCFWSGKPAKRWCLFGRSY

What does the source list for `NCC1CCN(C(=O)Nc2nccnc2C(=O)NC2Cc3ccccc3C2)CC1` [compound 10]?
dose-response signal (normalized), SI Fig 8 (PfcProRS; Log[inhibitor] (M) -5.000): 6.00E-01 and 6.56E-01 and 6.73E-01; dose-response signal (normalized), SI Fig 8 (PfcProRS; Log[inhibitor] (M) -5.301): 9.19E-01 and 8.61E-01 and 8.50E-01; dose-response signal (normalized), SI Fig 8 (PfcProRS; Log[inhibitor] (M) -5.601): 9.17E-01 and 9.92E-01 and 9.34E-01; dose-response signal (normalized), SI Fig 8 (PfcProRS; Log[inhibitor] (M) -5.904): 9.34E-01 and 1.02E+00 and 9.14E-01; dose-response signal (normalized), SI Fig 8 (PfcProRS; Log[inhibitor] (M) -6.208): 1.16E+00 and 1.11E+00 and 8.47E-01; dose-response signal (normalized), SI Fig 8 (PfcProRS; Log[inhibitor] (M) -6.509): 1.03E+00 and 1.08E+00 and 9.82E-01; dose-response signal (normalized), SI Fig 8 (PfcProRS; Log[inhibitor] (M) -6.796): 9.55E-01 and 9.28E-01 and 9.85E-01; dose-response signal (normalized), SI Fig 8 (PfcProRS; Log[inhibitor] (M) -7.108): 9.16E-01 and 1.02E+00 and 1.03E+00; dose-response signal (normalized), SI Fig 8 (PfcProRS; Log[inhibitor] (M) -7.409): 1.06E+00 and 1.03E+00 and 1.09E+00; dose-response signal (normalized), SI Fig 8 (PfcProRS; Log[inhibitor] (M) -7.710): 8.76E-01 and 1.01E+00 and 9.98E-01; dose-response signal (normalized), SI Fig 8 (PfcProRS; Log[inhibitor] (M) -8.000): 1.02E+00 and 1.09E+00 and 1.14E+00; dose-response signal (normalized), SI Fig 8 (PfcProRS; Log[inhibitor] (M) -8.301): 1.04E+00 (2×) and 9.07E-01; dose-response signal (normalized), SI Fig 8 (PfcProRS; Log[inhibitor] (M) -8.602): 1.06E+00 and 9.87E-01 and 1.02E+00; dose-response signal (normalized), SI Fig 8 (PfcProRS; Log[inhibitor] (M) -9.000): 9.95E-01 and 1.10E+00 and 1.11E+00; dose-response signal (normalized), SI Fig 8 (PfcProRS; Log[inhibitor] (M) -9.301): 9.71E-01 and 8.41E-01 and 1.04E+00; IC50 (HsProRS): > 10 µM; Kd (HsProRS; HsProRS (KD [nM]) + 100 μM proline mean, + 100 μM proline): 1360 nM; normalized TR-FRET ligand displacement signal, dose-response replicates (SI Fig 6) (HsProRS; Log[inhibitor] (M) -5.000): 7.52E-01 and 7.79E-01 and 7.62E-01; TR-FRET dose-response, normalized signal (SI Fig 11) (HsProRS; Log[inhibitor] (M) -5.000): 6.05E-01 and 5.95E-01 and 6.36E-01; normalized TR-FRET ligand displacement signal, dose-response replicates (SI Fig 6) (HsProRS; Log[inhibitor] (M) -5.301): 8.20E-01 and 8.88E-01 and 8.92E-01; TR-FRET dose-response, normalized signal (SI Fig 11) (HsProRS; Log[inhibitor] (M) -5.301): 6.96E-01 and 7.22E-01 and 7.09E-01; normalized TR-FRET ligand displacement signal, dose-response replicates (SI Fig 6) (HsProRS; Log[inhibitor] (M) -5.601): 9.12E-01 (2×) and 9.52E-01; TR-FRET dose-response, normalized signal (SI Fig 11) (HsProRS; Log[inhibitor] (M) -5.601): 8.44E-01 and 7.94E-01 and 8.38E-01; normalized TR-FRET ligand displacement signal, dose-response replicates (SI Fig 6) (HsProRS; Log[inhibitor] (M) -5.904): 1.12E+00 and 9.84E-01 and 8.91E-01; TR-FRET dose-response, normalized signal (SI Fig 11) (HsProRS; Log[inhibitor] (M) -5.904): 8.92E-01 and 8.20E-01 and 8.24E-01; normalized TR-FRET ligand displacement signal, dose-response replicates (SI Fig 6) (HsProRS; Log[inhibitor] (M) -6.208): 9.97E-01 and 8.76E-01 and 9.90E-01; TR-FRET dose-response, normalized signal (SI Fig 11) (HsProRS; Log[inhibitor] (M) -6.208): 8.69E-01 and 8.29E-01 and 9.13E-01; normalized TR-FRET ligand displacement signal, dose-response replicates (SI Fig 6) (HsProRS; Log[inhibitor] (M) -6.509): 9.61E-01 and 1.04E+00 and 9.10E-01; TR-FRET dose-response, normalized signal (SI Fig 11) (HsProRS; Log[inhibitor] (M) -6.509): 9.27E-01 and 8.13E-01 and 9.47E-01; normalized TR-FRET ligand displacement signal, dose-response replicates (SI Fig 6) (HsProRS; Log[inhibitor] (M) -6.796): 1.04E+00 and 1.06E+00 and 1.01E+00; TR-FRET dose-response, normalized signal (SI Fig 11) (HsProRS; Log[inhibitor] (M) -6.796): 9.41E-01 and 8.80E-01 and 8.81E-01; normalized TR-FRET ligand displacement signal, dose-response replicates (SI Fig 6) (HsProRS; Log[inhibitor] (M) -7.108): 1.05E+00 and 9.51E-01 and 1.07E+00; TR-FRET dose-response, normalized signal (SI Fig 11) (HsProRS; Log[inhibitor] (M) -7.108): 8.72E-01 and 9.00E-01 and 8.74E-01; normalized TR-FRET ligand displacement signal, dose-response replicates (SI Fig 6) (HsProRS; Log[inhibitor] (M) -7.409): 8.85E-01 and 9.14E-01 and 8.87E-01; TR-FRET dose-response, normalized signal (SI Fig 11) (HsProRS; Log[inhibitor] (M) -7.409): 8.90E-01 and 8.97E-01 and 8.75E-01; normalized TR-FRET ligand displacement signal, dose-response replicates (SI Fig 6) (HsProRS; Log[inhibitor] (M) -7.710): 9.64E-01 (2×) and 8.88E-01; TR-FRET dose-response, normalized signal (SI Fig 11) (HsProRS; Log[inhibitor] (M) -7.710): 8.83E-01 and 8.58E-01 and 9.38E-01; normalized TR-FRET ligand displacement signal, dose-response replicates (SI Fig 6) (HsProRS; Log[inhibitor] (M) -8.000): 9.97E-01 and 1.02E+00 and 9.70E-01; TR-FRET dose-response, normalized signal (SI Fig 11) (HsProRS; Log[inhibitor] (M) -8.000): 9.01E-01 and 9.27E-01 and 9.34E-01; normalized TR-FRET ligand displacement signal, dose-response replicates (SI Fig 6) (HsProRS; Log[inhibitor] (M) -8.301): 9.79E-01 and 9.25E-01 and 8.62E-01; TR-FRET dose-response, normalized signal (SI Fig 11) (HsProRS; Log[inhibitor] (M) -8.301): 8.32E-01 and 8.76E-01 and 8.86E-01; normalized TR-FRET ligand displacement signal, dose-response replicates (SI Fig 6) (HsProRS; Log[inhibitor] (M) -8.602): 1.04E+00 and 9.88E-01 and 8.85E-01; TR-FRET dose-response, normalized signal (SI Fig 11) (HsProRS; Log[inhibitor] (M) -8.602): 8.91E-01 and 9.03E-01 and 9.02E-01; normalized TR-FRET ligand displacement signal, dose-response replicates (SI Fig 6) (HsProRS; Log[inhibitor] (M) -9.000): 9.73E-01 and 8.88E-01 and 1.05E+00; TR-FRET dose-response, normalized signal (SI Fig 11) (HsProRS; Log[inhibitor] (M) -9.000): 9.24E-01 and 8.78E-01 and 8.94E-01; normalized TR-FRET ligand displacement signal, dose-response replicates (SI Fig 6) (HsProRS; Log[inhibitor] (M) -9.301): 9.62E-01 and 9.69E-01 and 9.04E-01; TR-FRET dose-response, normalized signal (SI Fig 11) (HsProRS; Log[inhibitor] (M) -9.301): 9.15E-01 and 8.48E-01 and 8.61E-01; HsProRS % signal at 10 μM (HsProRS; no added proline/ATP (-), 10 μM): 61.2%
